Source: US9381187B2, “Radiation countermeasure agents” (PALOMA PHARMACEUTICALS, INC., priority 2011, dated 2016)

Tests used:
[1] = test system: C57 mice exposed to gamma radiation; assay: Mitigation of radiation effect in vivo (TBI 9 Gy); conditions: female C57 mice, 9 Gy gamma radiation; ip 100 μl on day 1 and days 3-26
Excerpt: Sixteen female C57 mice are exposed to gamma radiation (9 Gy). Group 1 received radiation only (no drug). Group 2 received radiation and P529 as noted in the following schedule: […]

[2] = test system: HOS cells (human osteoblast cells); assay: Cellular radioprotection, colony formation assay (cell survival after gamma radiation); type: cell-based; conditions: for survival: HOS cells under radioprotective treatment conditions (FIG. 2); for DRF: in vitro comparison with amifostine, HOS cells, gamma radiation (FIG. 2)
Protocol: Radiation protection by P529 is evaluated using a human osteoblast cell model (HOS cells). The effect of P529 (10 μM, 4 hr) on cell survival after radiation is assessed; cell survival was measured using the colony formation assay.

HOS cells = assay: Chromosomal radiation protection, metaphase aberration scoring; type: cell-based, human; conditions: for Breaks / Fragments / Percent Aberrant Cells / Rings + Dicentrics: Radiation + P529 (25 uM, 12 hrs pre-radiation)
Protocol: Non-tumorigenic immortalized human osteosarcoma cells (HOS) are exposed to increasing doses of gamma radiation (O-4 Gy; 6.6 Gy/min). Control cells receive no drug; Drug-treated cells receive P529 (25 uM, 12 hrs pre-radiation). Metaphase plates are prepared from control and drug-treated cells (Gupta, Br J Radiol, 59:625 1986). A total of 100 metaphases are examined per group/dose. Aberrant metaphases, chromatid and chromosome breaks, fragments, rings, and dicentrics are scored under a light microscope. Aberrations are identified using criteria given by Savage (J Med Genetics 12:103-122, 1976).

In the case of `COc1ccc(COc2cc3oc(=O)c4cc(C(C)O)ccc4c3cc2OC)cc1` (stereo not shown) [P529, 8-(1-Hydroxy-ethyl)-2-methoxy-3-(4-methoxy-benzyloxy)-benzo[c]chromen-6-one], the “mitigation of radiation effect and damage” value [1] is reported as “can mitigate the radiation effect”, the “dose-reduction factor (DRF)” value ([2]; HOS cells pretreated 10 μM for 4 hr prior to gamma radiation, at the 0.005 survival fraction (FIG. 1)) is reported as 1.38 and the survival [2] is reported as 0.99. The DRF [2] was 1.34, the “radiation resistance of cells” value ([2]; pretreated 10 μM for 4 hr prior to radiation exposure) was “significant radiation resistance” and the Breaks (HOS cells; dose 0 Gy) was “.0016 ± .0002”. For the same compound, the Fragments (HOS cells; dose 0 Gy) was “.007 ± .0009”, the “Percent Aberrant Cells” value (HOS cells; dose 0 Gy) was “.66 ± .07%” and the “Rings + Dicentrics” value (HOS cells; dose 0 Gy) was 0.00 ± 0.0. The Breaks (HOS cells; dose 1 Gy) was “.0013 ± .0002”, the Fragments (HOS cells; dose 1 Gy) was “.05 ± .006” and the “Percent Aberrant Cells” value (HOS cells; dose 1 Gy) was 3.1 ± .033%. For the same compound, the “Rings + Dicentrics” value (HOS cells; dose 1 Gy) was 0.00 ± 0.0, the Breaks (HOS cells; dose 2 Gy) was “.0018 ± .0002” and the Fragments (HOS cells; dose 2 Gy) was “.118 ± .022”. For the same compound, the “Percent Aberrant Cells” value (HOS cells; dose 2 Gy) was 5.0 ± .052%, the “Rings + Dicentrics” value (HOS cells; dose 2 Gy) was “.003 ± .0004” and the Breaks (HOS cells; dose 3 Gy) was “.0022 ± .0003”. For the same compound, the Fragments (HOS cells; dose 3 Gy) was “.23 ± .028”, the “Percent Aberrant Cells” value (HOS cells; dose 3 Gy) was 11.4 ± 1.22% and the “Rings + Dicentrics” value (HOS cells; dose 3 Gy) was “.005 ± .0004”. For the same compound, the Breaks (HOS cells; dose 4 Gy) was “.0039 ± .0004”, the Fragments (HOS cells; dose 4 Gy) was “.30 ± .031” and the “Percent Aberrant Cells” value (HOS cells; dose 4 Gy) was 19.5 ± 1.29%. The “Rings + Dicentrics” value (HOS cells; dose 4 Gy) was “.017 ± .002” and the “chromosomal protection from radiation exposure” value (HOS cells; human HOS cells, Table 2) was “can provide chromosomal protection from radiation exposure”.
Compound `NCCCNCCSP(=O)(O)O` [amifostine, reference compound] has a survival [2] of 0.35 and a DRF [2] of 1.45.
